Test results from article PMC10265587 (European journal of medicinal chemistry, 2022).
“Also recorded” adds a separate entry of the source.

Experiments:
[1] = tested on: Nrf2 target genes GSTM3, HMOX1, NQO1 in NCM460D cells; assay: Expression of Nrf2-ARE regulated genes by RT-qPCR in NCM460D cells; format: cell-based; conditions: NCM460D cells, 100, 10 and 1 μM, 24 h, RT-PCR
[2] = target: Keap1-Nrf2 PPI (Keap1 Kelch domain / FITC-9mer Nrf2 peptide amide) (Homo sapiens, UniProt Q14145); assay: Fluorescence polarization; conditions: FP assay, triplicates
Chain of Keap1-Nrf2 PPI (Keap1 Kelch domain / FITC-9mer Nrf2 peptide amide) (Q14145 321-609 limits assumed): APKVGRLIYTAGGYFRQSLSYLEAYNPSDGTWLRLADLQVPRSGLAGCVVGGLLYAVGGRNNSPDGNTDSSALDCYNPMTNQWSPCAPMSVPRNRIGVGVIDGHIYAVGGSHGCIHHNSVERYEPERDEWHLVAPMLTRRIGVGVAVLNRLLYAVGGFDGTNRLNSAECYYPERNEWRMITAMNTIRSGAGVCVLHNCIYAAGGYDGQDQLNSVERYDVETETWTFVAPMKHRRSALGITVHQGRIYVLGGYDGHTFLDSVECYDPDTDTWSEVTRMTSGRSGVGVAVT

inhibition at 5 µM [2]	Compound	transcription (mRNA levels) of Nrf2 target genes GSTM3, HMOX1 and NQO1 [1]
	Cc1ccc(S(=O)(=O)N(CC(=O)O)c2cc(OCc3ccc(F)cc3)c(N(CC(=O)O)S(=O)(=O)c3ccc(C)cc3)c3ccccc23)cc1 [12d, 2-(4-Fluorobenzyloxy)-1,4-bis(4-methylphenylsulfonamido)naphthalene-N,N'-diacetic acid]	significantly increased; also recorded: effectively stimulate transcription
	Cc1ccc(S(=O)(=O)N(CC(=O)O)c2ccc(N(CC(=O)O)S(=O)(=O)c3ccc(C)cc3)c(OCc3ccc(F)cc3)c2)cc1 [7v, 2-(4-Fluorobenzyloxy)-1,4-bis(4-methylphenylsulfonamido)benzene-N,N'-diacetic acid]	no effects
~50%	COc1ccc(S(=O)(=O)N(CC(=O)O)c2ccc(N(CC(=O)O)S(=O)(=O)c3ccc(OC)cc3)c(N3CCCCC3)c2)cc1 [7b, 2-(Piperidin-1-yl)-1,4-bis(4-methoxyphenylsulfonamido)benzene-N,N'-diacetic acid]	
